Key:
human CaR [1] = biological target: T1, human CaR (Homo sapiens, UniProt P41180); assay: Cytosolic calcium (Cai) response of HEK 293 cells stably transfected with the human CaR; format: cell-based; set-up: expressed in transfected cells; host or cells: HEK 293; settings: for effect on the EC50 of activation by Cao compared with 40 mM NaCl: addition of 40 mM salt
T1 sequence (P41180 20-1078): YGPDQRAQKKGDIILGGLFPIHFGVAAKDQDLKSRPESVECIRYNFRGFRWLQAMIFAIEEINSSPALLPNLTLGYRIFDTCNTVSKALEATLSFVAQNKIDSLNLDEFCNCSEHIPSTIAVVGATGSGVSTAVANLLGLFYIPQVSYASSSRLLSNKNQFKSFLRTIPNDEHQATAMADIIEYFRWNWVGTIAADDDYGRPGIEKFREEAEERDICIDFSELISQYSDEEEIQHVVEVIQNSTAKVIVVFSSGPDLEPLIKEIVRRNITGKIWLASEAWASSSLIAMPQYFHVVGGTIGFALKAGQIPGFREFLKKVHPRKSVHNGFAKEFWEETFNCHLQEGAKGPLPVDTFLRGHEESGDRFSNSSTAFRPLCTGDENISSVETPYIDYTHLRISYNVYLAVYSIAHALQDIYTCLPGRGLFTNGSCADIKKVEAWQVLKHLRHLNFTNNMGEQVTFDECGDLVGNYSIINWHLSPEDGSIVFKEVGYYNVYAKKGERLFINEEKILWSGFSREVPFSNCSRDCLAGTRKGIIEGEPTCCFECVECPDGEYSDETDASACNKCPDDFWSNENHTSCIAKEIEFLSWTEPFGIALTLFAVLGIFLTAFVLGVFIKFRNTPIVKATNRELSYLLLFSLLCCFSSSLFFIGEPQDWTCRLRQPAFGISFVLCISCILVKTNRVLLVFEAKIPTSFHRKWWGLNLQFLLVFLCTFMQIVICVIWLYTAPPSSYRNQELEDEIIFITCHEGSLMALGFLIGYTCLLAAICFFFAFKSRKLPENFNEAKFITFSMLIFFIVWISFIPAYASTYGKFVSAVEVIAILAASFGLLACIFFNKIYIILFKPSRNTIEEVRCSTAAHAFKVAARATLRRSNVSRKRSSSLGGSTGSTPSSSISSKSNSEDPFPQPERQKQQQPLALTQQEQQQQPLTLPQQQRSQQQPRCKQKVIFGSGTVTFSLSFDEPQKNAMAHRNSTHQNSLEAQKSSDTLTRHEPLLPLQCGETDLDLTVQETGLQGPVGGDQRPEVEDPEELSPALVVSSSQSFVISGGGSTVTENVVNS
Experimental: Measurement of Cai using cell population system: Coverslips with near-confluent HEK cells were loaded with fura-2/AM and placed diagonally into thermostated cuvettes equipped with a magnetic stirrer. The bath solution was stirred at 37° C., and CaR agonists were added to the desired final concentration. Excitation monochrometers was centered at 340 nm and 380 nm with emission light collected at 90° using a long-pass emission filter. The 340/380 excitation ratio of emitted light was used to calculate Cai. Both in vivo and in vitro calibrations were used to estimate Cai.

chicken CaR = biological target: T2, chicken CaR (Gallus gallus, UniProt A0A8V0ZLX2); assay: Expression of chicken CaR in Xenopus laevis oocytes, agonist-dependent inward Cl- currents; format: cell-based
T2 construct: ORF 3177 nt, nt 87-3263), T7 cRNA injected into Xenopus laevis oocytes
T2 sequence (A0A8V0ZLX2 20-1059): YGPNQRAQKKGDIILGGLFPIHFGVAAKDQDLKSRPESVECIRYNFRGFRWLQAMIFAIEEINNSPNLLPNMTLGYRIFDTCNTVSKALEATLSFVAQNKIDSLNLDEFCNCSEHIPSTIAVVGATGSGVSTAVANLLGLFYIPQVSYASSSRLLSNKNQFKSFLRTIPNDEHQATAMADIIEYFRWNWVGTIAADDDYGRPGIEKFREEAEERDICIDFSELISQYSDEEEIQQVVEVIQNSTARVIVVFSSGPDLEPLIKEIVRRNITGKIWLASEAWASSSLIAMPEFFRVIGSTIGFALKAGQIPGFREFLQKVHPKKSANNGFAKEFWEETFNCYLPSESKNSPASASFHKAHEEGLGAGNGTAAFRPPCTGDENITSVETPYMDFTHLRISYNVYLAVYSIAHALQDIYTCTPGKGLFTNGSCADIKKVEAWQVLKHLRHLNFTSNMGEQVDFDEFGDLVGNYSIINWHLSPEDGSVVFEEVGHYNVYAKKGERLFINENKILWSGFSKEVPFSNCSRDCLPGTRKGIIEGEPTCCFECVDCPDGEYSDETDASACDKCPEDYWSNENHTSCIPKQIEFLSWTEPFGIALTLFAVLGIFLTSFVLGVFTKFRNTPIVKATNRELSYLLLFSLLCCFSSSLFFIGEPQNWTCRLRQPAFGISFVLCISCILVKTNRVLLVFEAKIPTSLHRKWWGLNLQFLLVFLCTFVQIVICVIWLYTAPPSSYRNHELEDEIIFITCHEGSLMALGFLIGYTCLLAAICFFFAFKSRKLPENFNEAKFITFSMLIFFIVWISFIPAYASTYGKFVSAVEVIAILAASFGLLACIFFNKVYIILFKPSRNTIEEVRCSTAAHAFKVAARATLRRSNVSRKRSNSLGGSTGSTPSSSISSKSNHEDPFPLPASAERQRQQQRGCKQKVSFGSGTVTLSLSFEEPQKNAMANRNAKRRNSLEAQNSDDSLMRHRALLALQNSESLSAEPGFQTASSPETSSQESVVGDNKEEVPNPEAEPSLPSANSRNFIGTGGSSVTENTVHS
Description: Expression of the chicken CaR in Xenopus laevis oocytes. The assay is based on injection of synthetic RNA (cRNA) for the chicken CaR into Xenopus oocytes and measurement of agonist-dependent inward currents due to CaR-mediated stimulation of Ca^2+ -activated Cl^- channels (Brown, et al., Nature 366: 575-580 (1993)). In preparing, handling and injecting the oocytes, the techniques of Hediger et al. were followed (Proc. Nat'l Acad. Sci. USA 84:2634-2637 (1987)). cRNA was transcribed from the C1D one as previously described (Brown et al. Nature 336:575-580 (1993)). In vitro transcription of cRNA was done with T7 RNA polymerase in the presence of a cap analog (m^7 -GpppG, Pharmacia Biotech, Upsala, Sweden). Defolliculated oocytes were injected with 50 nl of a 0.25 μg/μl aqueous solution of CaR cRNA or with the same volume of H2 O as a negative control. The injected oocytes were then incubated in ND96 "standard" solution containing 92 mM Na, 5 mM K, 0.5 mM CaCl2 0.5 mM MgCl and 5 mM Hepes, pH 7.5, for 3-4 days before electrophysiological study. Cl^- currents were elicited by treatment of the oocytes with increasing concentrations of Ca^2+0, Mg^2+0 or Gd^3+0 and were measured using two electrode voltage clamp at a holding potential of […], as described in detail previously (Brown et al. Nature 336:575-580 (1993); Riccardi, et al. Proc. Nat'l Acad. Sci. USA 92:131-135 (1995)).

human CaR [2] = biological target: T1, human CaR; settings: addition of NaCl
Experimental: Measurement of ^3 H-inositol phosphates: Cells transfected with DNA encoding human CaR were labeled with [^3 H]inositol (10 uCi/10^6 cells) overnight in medium 199 (with 10 ul/ml penicillin-streptomycin, 10 mM Hepes, pH 7.5, and 15% bovine serum), washed with solution (10 mM LiCl, 0.5 mM MgSO4, 0.5 mM CaCl2, and 2 mg/ml BSA in Eagle's MEM with Earle's salts), and then incubated with polyvalent cations for 30 minutes. Reactions were terminated with a final concentration of 10% TCA. After sedimentation of precipitated debris and removal of TCA by ether extraction, inositol phosphates in the aqueous phase were separated on Dowex anion exchange columns. The radioactive inositol monophosphate (InsP), bisphosphate (InsP2), trisphosphate (InsP3) and tetraphosphate (InsP4) were eluted stepwise with 0.2 M, 0.4 M, 0.8 M and 1.2 M formate containing 0.1 M formic acid, respectively, and quantitated using a liquid scintillation counter.

[3] = oocytes injected with chicken CaR cRNA, Cl- currents

With `[Cl-].[K+]` [potassium chloride] the “effect on the EC50 of activation by Cao compared with 40 mM NaCl” value (human CaR [1]) was “same effect”.

For `[Gd+3]` [Gd^3+o], the “magnitude of inward current responses relative to Ca2+-evoked responses” value (chicken CaR; FIG. 5) was “almost an order of magnitude greater” and the half-maximal activation (chicken CaR; [3]) was “micromolar range”.

`[Ca+2]` [Ca^2+o] was tested, and the effective concentration range (chicken CaR; [3]) was “millimolar range”, the “threshold for cell activation” value (human CaR [1]; no alteration in NaCl) was “about 1.5 mM” and the EC50 (human CaR [1]; no alteration in NaCl, read-out: EC50 for activation of the CaR) was about 3.5 mM. The “shift in the EC50 per 10 mM change in ionic strength” value (human CaR [1]; per 10 mM change in ionic strength) was “approximately 0.2 mM”.

With `[Cl-].[Na+]` [NaCl, sodium chloride] the “effect on Cai response to 2.5 mM Cao” value (human CaR [1]; NaCl elevated by 20 to 60 mM) was “attenuated”, the “effect on threshold and EC50 of Cao activation” value (human CaR [1]; addition of NaCl in 20 mM increments) was “shift to the right” and the “effect on Ca0-stimulated inositol phosphate accumulation” value (human CaR [2]) was “attenuated”.

For `[Mg+2]` [Mg^2+o], the effective concentration range (chicken CaR; [3]) was “millimolar range”.

In the case of `C[N+](C)(C)CCO.[Cl-]` [choline chloride], the “effect on the EC50 of activation by Cao compared with 40 mM NaCl” value (human CaR [1]) is reported as “same effect”.
